In US4954509A, “Isoquinoline derivatives and their use as analgesics” (Dr. Lo. Zambeletti S.p.A., priority 1988, dated 1990):
pKi: −log10 of the molar value. Structures can show the parent of a compound that is named as a salt. Where two headings read alike, the source gives them in different places.

Tests used:
mice [1] = experiment: tail-flick test in mice; format: in vivo, mouse (male Charles River, Swiss Strain); conditions: subcutaneous, calculated as the free base, 30 min pretreatment; for ED50: Mus musculus, sc, 0.5 h; for MOUSE TAIL-FLICK ED50: 30 min
Experimental: (B) Tail-flick test in mice
The methodology employed is based on that described by D'Amour and Smith, J. Pharmacol. Exp. Ther. 72, 74/1941.
Male Charles River mice (Swiss Strain), 22-34g body weight were used. Animals were allowed food and water ad libitum and were randomized into groups of 10 prior to experimentation.
Test compounds were dissolved in either distilled water or distilled water plus 0.1 M AMS and administered by the subcutaneous route in a final volume of 10 ml/Kg. Control animals received 10 ml/kg of the appropriate vehicle alone. Following a pretreatment period of 30 min., the mice were again placed under the heat source and the reaction tine re-determined.
Percentage quantal protection was determined as the number of mice in which the reaction time was doubled compared to pretreatment values, expressed as a percentage of the total number of mice in the group.

mice [2] = experiment: p-phenylquinone-induced abdominal writhing test in mice; format: in vivo, mouse (male Charles River, Swiss Strain); conditions: Mus musculus, sc, 20 min; subcutaneous; calculated as the free base; 20 min pretreatment, p-phenylquinone 2 mg/Kg i.p.
Experimental: (A) P-phenylquinone-induced abdominal writhing test in mice
The methodology employed is based on that described by Sigmund et al, Proc. Soc. Exptl. Biol. 95, 729/1957, modified by Milne and Twomey, Agents and Actions, 10, 31/1980.
Male Charles River mice (Swiss Strain), 25-36g body weight, were used. Animals were allowed food and water ad libitum and were randomized into groups of 10 prior to experimentation. Test compounds were dissolved in either distilled water or distilled water plus 0.1 M AMS, and administered by the subcutaneous route in a final volume of 10 ml/Kg. Control animals received 10 ml/Kg of the appropriate vehicle alone. Following a pretreatment period of 20 min., mice were injected intraperitoneally with p-phenylquinone, 2 mg/Kg at 37° C. in a final volume of […]. […] During this period the number of abdominal writhing responses per animal were recorded where writhing consists of an intermittent contraction of the abdomen associated with hind leg extension.
The degree of antinociceptive protection afforded by the test compound was determined as the mean number of writhing responses observed in the treated group (T) expressed as a percentage of the mean number of writhing responses in the control group (C) according to the following formula:
[1-(T/C]×100%=% graded protection

MU opiate receptor = biological target: T1, MU opiate receptor (Cavia porcellus, UniProt A0ACM8Q262); experiment: opiate receptors binding, MU (3H-DAGO, guinea pig brain homogenate)
T1 construct: 3H-DAGO displacement
Experimental: Radio receptor binding to μ and K sites is performed on fresh guinea pig brain homogenate prepared according to Kosterlitz.
Whole brain without cerebellum is homogenized in 50 mM, Tris-buffer (pH 7.4 at 0° C.) and centrifuged at 49,000×g×10 min.
The pellet is then resuspended in the same buffer, incubated at 37° C. for 45 min. and centrifuged again. 1.9ml of the final homogenate (1:100 in Tris-pH 7.4, 0° C.) is used for the binding assay.
The filters are then dryed, solubilized in Filtercount and the radioactivity monitored. Non specific binding
is determined in the presence of 10-6M Naloxone.

[3] = fresh guinea pig brain homogenate, 25° C., 40 min, read-out: OPIATE RECEPTORS BINDING MU Ki

T1 sequence (A0ACM8Q262 1-400): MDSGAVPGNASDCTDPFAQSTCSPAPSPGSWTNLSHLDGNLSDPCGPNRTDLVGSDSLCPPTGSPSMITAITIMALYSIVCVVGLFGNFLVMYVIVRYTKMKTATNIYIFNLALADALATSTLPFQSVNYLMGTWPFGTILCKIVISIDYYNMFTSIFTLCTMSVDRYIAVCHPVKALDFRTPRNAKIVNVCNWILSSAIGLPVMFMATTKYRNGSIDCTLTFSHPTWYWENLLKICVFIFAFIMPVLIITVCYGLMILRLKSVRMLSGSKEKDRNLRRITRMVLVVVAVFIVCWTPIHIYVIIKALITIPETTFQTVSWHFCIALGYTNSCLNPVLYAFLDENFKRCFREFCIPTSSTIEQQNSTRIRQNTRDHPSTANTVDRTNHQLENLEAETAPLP

Row | Compound | ED50 (mice [1]) [mg/kg] | ED50 (mice [2]) [mg/kg] | pKi (MU opiate receptor; [3]) | pKi (MU opiate receptor; read-out: OPIATE RECEPTORS BINDING MU Ki, fresh guinea pig brain homogenate, 25° C., 40 min) | MOUSE TAIL-FLICK ED50 (mice [1]) [mg/kg]
1 | CC1c2ccccc2C(CN2CCCCC2)N(C(=O)Cc2ccc(Cl)c(Cl)c2)C1C (single isomer, unassigned; diastereoisomer b) [Example 49, 1-(piperidin-1-yl)methyl-2-(3,4-dichlorophenyl)acetyl-3,4-dimethyl-1,2,3,4-tetrahydroisoquinoline diastereoisomer B.] | 0.077 | 0.038 |  |  | 
2 | COc1cccc2c1CCN(C(=O)Cc1ccc(C(F)(F)F)cc1)C2CN1CCCCC1 (centres unmarked) [Example 35, 1-(piperidin-1-yl)methyl-2-(4-trifluoromethylphenyl)acetyl5-methoxy-1,2,3,4-tetrahydroisoquinoline hydrochloride] | 0.689 | 0.204 | ~6.00 |  | 
3 | O=C(Cc1ccc(Cl)c(Cl)c1)N1CCc2c(O)cccc2C1CN1CCCC1 (single isomer, unassigned; (-)) [Example 54, (-)-1-(pyrrolidin-1-yl)methyl-2-(3,4-dichlorophenyl)acetyl-5-hydroxy-1,2,3,4-tetrahydroisoquinoline hydrochloride] | 0.006 | 0.0022 |  |  | 
4 | CC(=O)Oc1cccc2c1CCN(C(=O)Cc1ccc(Cl)c(Cl)c1)C2CN1CCCC1 (centres unmarked) [Example 52, 1-(pyrrolidin-1-yl)methyl-2-(3,4-dichlorophenyl)acetyl-5-acetoxy-1,2,3,4-tetrahydroisoquinoline hydrochloride] | 0.024 | 0.005 |  |  | 
5 | COc1cccc2c1CCN(C(=O)Cc1ccc(Cl)c(Cl)c1)C2CN1CCCCC1 (centres unmarked) [Example 36, 1-(piperidin-1-yl)methyl-2-(3,4-dichlorophenyl)acetyl-5-methoxy-1,2,3,4-tetrahydroisoquinoline hydrochloride] | 0.924 | 0.163 | ~6.00 |  | 
6 | O=C(Cc1ccc(Cl)c(Cl)c1)N1CC(c2ccccc2)c2ccccc2C1CN1CCCC1 (single isomer, unassigned; diastereoisomer b) [Example 50, 1-(pyrrolidin-1-yl)methyl-2-(3,4-dichlorophenyl)acetyl-4-phenyl-1,2,3,4-tetrahydroisoquinoline hydrochloride monohydrate diastereoisomer B] | 20 |  |  |  | 
7 | COc1ccc2c(c1OC)CCN(C(=O)Cc1ccc(Cl)c(Cl)c1)C2CN1CCCC1 (centres unmarked) [Example 39, 1-(pyrrolidin-1-yl)methyl-2-(3,4-dichlorophenyl)acetyl-5,6-dimethoxy-1,2,3,4-tetrahydroisoquinoline hydrochloride] | > 1 |  |  |  | 
8 | CSc1cccc2c1CCN(C(=O)Cc1ccc(Cl)c(Cl)c1)C2CN1CCCC1 (centres unmarked) [Example 32, 1-(pyrrolidin-1-yl)methyl-2-(3,4-dichlorophenyl)acetyl-5-methylthio-1,2,3,4-tetrahydroisoquinoline hydrochloride] | 0.365 | 0.202 | 6.35 |  | 
9 | O=C(Cc1ccc(Cl)c(Cl)c1)N1CCc2c(ccc(O)c2O)C1CN1CCCC1 (centres unmarked) [Example 40, 1-(pyrrolidin-1-yl)methyl-2-(3,4-dichlorophenyl)acetyl-5,6-dihydroxy-1,2,3,4-tetrahydroisoquinoline hydrochloride] | 0.461 | 0.429 |  | 7.31 | 
10 | CC1c2ccccc2C(CN2CCCC2)N(C(=O)Cc2ccc(Cl)c(Cl)c2)C1C (single isomer, unassigned; diastereoisomer b) [Example 46, 1-(pyrrolidin-1-yl)methyl-2-(3,4-dichlorophenyl)acetyl-3,4-dimethyl-1,2,3,4-tetrahydroisoquinoline diastereoisomer B] |  | 0.011 |  |  | 0.048
11 | CC1c2ccccc2C(CN2CCCC2)N(C(=O)Cc2ccc(Cl)c(Cl)c2)C1C (single isomer, unassigned; diastereoisomer c) [Example 47, 1-(pyrrolidin-1-yl)methyl-2-(3,4-dichlorophenyl)acetyl-3,4-dimethyl-1,2,3,4-tetrahydroisoquinoline hydrochloride diastereoisomer C] |  |  |  |  | 8.9
